These results are taken from patent publication US20250177557A1, “METHODS OF PRODUCING MICROBUBBLE DRUG CONJUGATES, VIRAL GENE THERAPY MICROBUBBLE CONJUGATES AND TARGETED MICROBUBBLES” (priority 2022, published 2025).

Data set [1] concerns human SHSY-5Y cells. Description: Neuroprotection of differentiated SHSY-5Y cells against parkinsonian neurotoxins (CFDA cell viability). The format is cell-based. The method, then:
Neuroprotection was tested in the well-established neuronal model of human SHSY-5Y cells (Lopes, F. M.,. et al. (2010) Brain Res. 1337, 85-94) treated with parkinsonian neurotoxins. Human SHSY-5Y cells were grown in 24 well dishes and differentiated into neuron-like cells by treatment with 10 μM retinoic acid (RA) for 7 days (FIG. 8A).
Cell viability was quantified by the CFDA assay as described previously (Sandhu, J. K., et al. (2009) Neurobiol. Dis. 33, 405-414.).
Recombinant human GDNF at 50 ng/ml was used as a positive control.

The conditions of data set [2]: MR guided focused ultrasound, one hemisphere sonicated. The method, then:
AAV2-GFP MDCs were injected into healthy rodents and FUS sonications used to open the BBB in the two brain regions affected by Parkinson's disease, the striatum (ST) and substantia nigra (SN). MR contrast agent gadolinium was co-injected and MR imaging performed to confirm BBB opening in the two regions.
CDNF protein neurotrophic drug was conjugated to MDCs and delivered to the SN and ST in this manner. Only one hemisphere was sonicated so the animals acted as their own control.

For data set [3] the following is noted: brain mets patients; cited from earlier work.
The conditions of data set [4]: patients; cited from earlier work.

As to “CDNF-MDCs: Cerebral Dopamine Neurotrophic factor protein conjugated to microbubbles”, the “Neuroprotection against thapsigargin (cell viability)” value in data set [1] (1.0 μM thapsigargin ~16 h, pre-treatment, rhGDNF 50 ng/ml, CDNF-MDCs 25-250 ng/ml) is on record as “completely protected”. The “Neuroprotection against MPP+ (cell viability)” value in data set [1] (1.0 mM MPP+ ~16 h, pre-treatment, rhGDNF 50 ng/ml, CDNF-MDCs 25-250 ng/ml) is listed as “completely protected”. For the same substance, the “Concentrations at which maximum neuroprotection was reached” value in data set [1] (MPP+ or thapsigargin) is 25 to 250 ng/mL. For the same substance, the “CDNF concentration delivered to ST and SN, sonicated vs. non-sonicated hemisphere (ELISA tissue analysis)” value in data set [2] is on record as “significant CDNF concentration delivered to the sonicated hemispheres”.
With Keytruda: checkpoint inhibitor antibody, the “Response, share of patients” value in data set [3] is listed as “about one third”.
As for ipilimumab, the “Incidence of grade 3 or -4 treatment-related AEs” value in data set [4] is given as 28%.
